Measurements from patent US4868290A, “4'-Deoxy-3"-demethoxy-3"-methylenedesmycosin derivatives and synthetic intermediates thereof” (Toyo Jozo Kabushiki Kaisha, priority 1987, dated 1989).
≈ marks a conversion by molar mass, not a printed value. Where two headings read alike, the source gives them in different places.

Assays:
Assay type in all cases: cell-based
E. coli NIHJ JC-2 = assay: MIC, E. coli NIHJ JC-2; settings: Escherichia coli, NIHJJC2
Text: (§1) The minimum inhibitory concentration (MIC) of compounds (1) according to the present invention is illustrated in Table 1.

Staph. aureus MS353C36 = assay: MIC, Staph. aureus MS353C36 (erythromycin resistant strain); settings: Staphylococcus aureus
Text: as §1

[1] = tested on: Bacillus subtilis ATCC6633; assay: MIC, Bacillus subtilis ATCC6633
Text: as §1

[2] = tested on: Coryne. diphtheriae P.W.8; assay: MIC, Coryne. diphtheriae P.W.8; settings: Corynebacterium diphtheriae
Text: as §1

Staph. aureus ATCC6538P = assay: MIC, Staph. aureus ATCC6538P; settings: Staphylococcus aureus
Text: as §1

[3] = tested on: Micrococcus luteus ATCC9341; assay: MIC, Micrococcus luteus ATCC9341
Text: as §1

Staph. aureus MS353 AO = assay: MIC, Staph. aureus MS353 AO; settings: Staphylococcus aureus, MS353AO
Text: as §1

[4] = tested on: Enterococcus faecalis 1501; assay: MIC, Enterococcus faecalis 1501
Text: as §1

Staph. aureus 0127 = assay: MIC, Staph. aureus 0127; settings: Staphylococcus aureus
Text: as §1

Strept. pyogenes N.Y.5 = assay: MIC, Strept. pyogenes N.Y.5; settings: Streptococcus pyogenes
Text: as §1

Staph. aureus MS353 = assay: MIC, Staph. aureus MS353; settings: Staphylococcus aureus
Text: as §1

Strept. agalactiae 1020 = assay: MIC, Strept. agalactiae 1020; settings: Streptococcus agalactiae
Text: as §1

Strept. pyogenes 1022 = assay: MIC, Strept. pyogenes 1022; settings: Streptococcus pyogenes
Text: as §1

Staph. aureus Smith = assay: MIC, Staph. aureus Smith; settings: Staphylococcus aureus
Text: as §1

Staph. aureus 0126 = assay: MIC, Staph. aureus 0126; settings: Staphylococcus aureus
Text: as §1

Staph. aureus 0119 = assay: MIC, Staph. aureus 0119; settings: Staphylococcus aureus
Text: as §1

[5] = Staph. aureus MS353, read-out: MIC
[6] = Staph. aureus Smith, read-out: MIC
[7] = Staph. aureus 0126, read-out: MIC

Row | Structure (SMILES) | MIC (E. coli NIHJ JC-2) [µg/mL] | MIC (Staph. aureus MS353C36) [µg/mL] | MIC [1] [µg/mL] | MIC [2] [µg/mL] | MIC (Staph. aureus ATCC6538P) [µg/mL] | MIC [3] [µg/mL] | MIC (Staph. aureus MS353 AO) [µg/mL] | MIC [4] [µg/mL] | MIC (Staph. aureus 0127) [µg/mL] | MIC (Strept. pyogenes N.Y.5) [µg/mL] | MIC (Staph. aureus MS353; [5]) [µg/mL] | MIC (Strept. agalactiae 1020) [µg/mL] | MIC (Strept. pyogenes 1022) [µg/mL] | MIC (Staph. aureus Smith; [6]) [µg/mL] | MIC (Staph. aureus 0126; [7]) [µg/mL] | MIC (Staph. aureus 0119) [µg/mL] | MIC (Staph. aureus MS353; MS353) [µg/mL] | MIC (Staph. aureus Smith) [µg/mL] | MIC (Staph. aureus 0126; 0126) [µg/mL]
1 | CCC1OC(=O)CC(O)C(C)C(OC2OC(C)C(O)C(N(C)C)C2O)C(C)CC(C)C(=O)/C=C/C(C)=C/C1COC1OC(C)CC(=O)C1OC (stereo not shown) [Compound 1, 4"-deoxy-3"-demethoxy-3"-oxo-19-deformyldesmycosin] | > 100 | 0.39 (≈ 0.548 µM) | 0.1 (≈ 0.14 µM) | 0.1 (≈ 0.14 µM) | 0.39 (≈ 0.548 µM) | 0.2 (≈ 0.281 µM) | > 100 | 1.56 (≈ 2.19 µM) | > 100 | 0.2 (≈ 0.281 µM) | 0.39 (≈ 0.548 µM) | 0.39 (≈ 0.548 µM) | 50 (≈ 70.2 µM) | 0.78 (≈ 1.1 µM) | 1.56 (≈ 2.19 µM) | > 100 | – | – | –
2 | CCC1OC(=O)CC(O)C(C)C(OC2OC(C)CC(N(C)C)C2O)C(C)CC(C)C(=O)/C=C/C(C)=C/C1COC1OC(C)C=C(OC)C1OC (stereo not shown) [Compound 2, 4',4"-dideoxy-3",4"-di-dehydro-19-deformyldesmycosin] | > 100 | 0.2 (≈ 0.282 µM) | 0.1 (≈ 0.141 µM) | 0.2 (≈ 0.282 µM) | 0.2 (≈ 0.282 µM) | ≤ 0.05 | > 100 | 1.56 (≈ 2.2 µM) | > 100 | 0.2 (≈ 0.282 µM) | 0.2 (≈ 0.282 µM) | 0.39 (≈ 0.549 µM) | > 100 | 0.39 (≈ 0.549 µM) | 6.25 (≈ 8.8 µM) | > 100 | – | – | –
3 | C=C1CC(C)OC(OCC2/C=C(C)/C=C/C(=O)C(C)CC(C)C(OC3OC(C)C(O)C(N(C)C)C3O)C(C)C(O)CC(=O)OC2CC)C1OC (stereo not shown) [Compound 3, 4"-deoxy-3"-demethoxy-3"-methylene-19-deformyldesmycosin] | > 100 | 0.39 (≈ 0.549 µM) | 0.1 (≈ 0.141 µM) | ≤ 0.05 | 0.39 (≈ 0.549 µM) | 0.1 (≈ 0.141 µM) | > 100 | 0.78 (≈ 1.1 µM) | > 100 | 0.78 (≈ 1.1 µM) | 0.39 (≈ 0.549 µM) | 0.1 (≈ 0.141 µM) | 50 (≈ 70.4 µM) | 1.56 (≈ 2.2 µM) | – | > 100 | – | – | –
4 | C=C1CC(C)OC(OCC2/C=C(C)/C=C/C(=O)C(C)CC(C)C(OC3OC(C)CC(N(C)C)C3O)C(C)C(O)CC(=O)OC2CC)C1OC (stereo not shown) [Compound 4, 4',4"-di-deoxy-3"-demethoxy-3"-methylene-19-deformyldesmycosin] | > 100 | 0.2 (≈ 0.288 µM) | 0.1 (≈ 0.144 µM) | ≤ 0.05 | 0.1 (≈ 0.144 µM) | ≤ 0.05 | > 100 | 0.39 (≈ 0.562 µM) | 100 (≈ 144 µM) | 0.1 (≈ 0.144 µM) | 0.2 (≈ 0.288 µM) | ≤ 0.05 | 3.13 (≈ 4.51 µM) | 0.39 (≈ 0.562 µM) | 0.78 (≈ 1.12 µM) | > 100 | – | – | –
5 | C=C1CC(C)OC(OCC2/C=C(C)/C=C/C(=O)C(C)CC(C)C(OC3OC(C)C(O)C(N(C)C)C3O)C(C)C(OC(=O)CC)CC(=O)OC2CC)C1OC (stereo not shown) [Compound 5, 4"-deoxy-3"-demethoxy-3"-methylene-3-0-propionyl-19-deformyldesmycosin] | > 100 | 0.78 (≈ 1.02 µM) | ≤ 0.05 | 0.2 (≈ 0.261 µM) | 0.39 (≈ 0.509 µM) | 0.2 (≈ 0.261 µM) | > 100 | 1.56 (≈ 2.04 µM) | > 100 | 0.78 (≈ 1.02 µM) | 0.78 (≈ 1.02 µM) | 0.2 (≈ 0.261 µM) | 100 (≈ 131 µM) | 0.78 (≈ 1.02 µM) | – | > 100 | – | – | –
6 | C=C1CC(C)OC(OCC2/C=C(C)/C=C/C(=O)C(C)CC(C)C(OC3OC(C)C(O)C(N(C)C)C3O)C(C)C(OC(=O)N(C)C)CC(=O)OC2CC)C1OC (stereo not shown) [Compound 6, 4"-deoxy-3"-demethoxy-3"-methylene-3-0-dimethylcarbamoyl-19-deformyldesmycosin] | > 100 | 0.78 (≈ 0.999 µM) | 0.1 (≈ 0.128 µM) | 0.1 (≈ 0.128 µM) | 0.39 (≈ 0.499 µM) | 0.2 (≈ 0.256 µM) | > 100 | 0.78 (≈ 0.999 µM) | > 100 | 0.78 (≈ 0.999 µM) | 0.39 (≈ 0.499 µM) | 0.2 (≈ 0.256 µM) | > 100 | 1.56 (≈ 2 µM) | – | > 100 | – | – | –
7 | CCC1OC(=O)CC(O)C(C)C(OC2OC(C)C(O)C(N(C)C)C2O)C(CC=O)CC(C)C(=O)/C=C/C(C)=C/C1COC1OC(C)C(O)C(OC)C1OC (stereo not shown) [Des, Desmycosin (4'-demycarosyltylosin), reference compound] | > 100 | 1.56 (≈ 2.02 µM) | 0.78 (≈ 1.01 µM) | 0.1 (≈ 0.13 µM) | 0.78 (≈ 1.01 µM) | 0.2 (≈ 0.259 µM) | 100 (≈ 130 µM) | 0.78 (≈ 1.01 µM) | > 100 | 0.1 (≈ 0.13 µM) | – | 0.2 (≈ 0.259 µM) | > 100 | – | – | > 100 | 1.56 (≈ 2.02 µM) | 1.56 (≈ 2.02 µM) | 1.56 (≈ 2.02 µM)
